Measurements reported in publication PMC9301957 (ACS Omega, 2022).

What was measured:
mTOR = mTOR ELISA, downstream signaling pathway in HCT-116 cells; assay type: cell-based, human; settings: compound at its IC50, untreated control 86.39 ng/mL
PI3K = PI3K ELISA, downstream signaling pathway in HCT-116 cells; assay type: cell-based, human; settings: compound at its IC50, untreated control 6.64 ng/mL
AKT = AKT ELISA, downstream signaling pathway in HCT-116 cells; assay type: cell-based, human; settings: compound at its IC50, untreated control 45.39 ng/mL
EGFR = EGFR (Homo sapiens, UniProt P00533); assay: EGFR protein kinase; assay type: biochemical; settings: mean ± SD of three replicates; for inhibition at 10 µM: read-out: autophosphorylation percentage inhibition at conc (10 μM), 10 μM
EGFR, sequence (P00533 25-1210): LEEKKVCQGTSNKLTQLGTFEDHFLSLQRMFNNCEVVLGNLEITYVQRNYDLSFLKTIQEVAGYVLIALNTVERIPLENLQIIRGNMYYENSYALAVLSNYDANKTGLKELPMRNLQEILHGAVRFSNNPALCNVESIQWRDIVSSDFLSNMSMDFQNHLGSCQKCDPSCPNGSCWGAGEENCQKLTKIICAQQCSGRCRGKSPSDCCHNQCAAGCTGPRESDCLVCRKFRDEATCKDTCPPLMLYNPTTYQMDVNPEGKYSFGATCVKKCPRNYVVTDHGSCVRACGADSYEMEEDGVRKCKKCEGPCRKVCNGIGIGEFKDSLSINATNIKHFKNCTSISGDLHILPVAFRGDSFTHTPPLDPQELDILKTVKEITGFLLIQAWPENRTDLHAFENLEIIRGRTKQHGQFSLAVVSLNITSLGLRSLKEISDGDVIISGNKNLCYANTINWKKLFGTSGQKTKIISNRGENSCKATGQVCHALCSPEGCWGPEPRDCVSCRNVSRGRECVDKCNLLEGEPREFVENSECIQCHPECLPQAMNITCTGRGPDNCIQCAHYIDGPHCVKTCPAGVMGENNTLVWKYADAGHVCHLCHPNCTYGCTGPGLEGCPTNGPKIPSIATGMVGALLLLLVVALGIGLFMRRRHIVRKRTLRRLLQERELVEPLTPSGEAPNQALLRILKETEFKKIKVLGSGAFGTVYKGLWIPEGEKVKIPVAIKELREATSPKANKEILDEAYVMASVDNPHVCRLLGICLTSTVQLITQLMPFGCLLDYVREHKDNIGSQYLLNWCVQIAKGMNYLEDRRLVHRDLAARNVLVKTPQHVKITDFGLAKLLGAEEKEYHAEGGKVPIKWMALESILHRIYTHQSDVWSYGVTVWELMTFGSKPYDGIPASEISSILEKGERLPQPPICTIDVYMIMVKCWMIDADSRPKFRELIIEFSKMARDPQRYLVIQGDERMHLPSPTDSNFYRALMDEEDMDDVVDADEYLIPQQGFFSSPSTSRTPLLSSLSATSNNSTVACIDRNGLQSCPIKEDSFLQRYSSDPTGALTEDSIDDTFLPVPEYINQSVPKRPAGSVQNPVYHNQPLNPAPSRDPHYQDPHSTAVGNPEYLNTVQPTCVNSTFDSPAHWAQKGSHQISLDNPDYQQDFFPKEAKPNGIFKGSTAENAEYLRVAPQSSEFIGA

autophosphorylation percentage inhibition at conc (10 μM) (EGFR) [%]	inhibition at 10 µM (EGFR) [%]	Structure (SMILES)	mTOR concentration in treated HCT-116 cells (mTOR) [ng/mL]	PI3K concentration in treated HCT-116 cells (PI3K) [ng/mL]	AKT concentration in treated HCT-116 cells (AKT) [ng/mL]
		Cc1cc(C)n(-c2nc(Nc3ccc(Br)cc3)nc(N3CCOCC3)n2)n1 [Compound 4f, N-(4-Bromophenyl)-4-(3,5-dimethyl-1H-pyrazol-1-yl)-6-morpholino-1,3,5-triazin-2-amine]	34.36	1.24	12.35
69.68 ± 2.01	70	Cc1cc(C)n(-c2nc(Nc3ccc(Cl)cc3)nc(-n3nc(C)cc3C)n2)n1 [Compound 5c, N-(4-chlorophenyl)-4,6-bis(3,5-dimethyl-1H-pyrazol-1-yl)-1,3,5-triazin-2-amine]			
74.68 ± 2.47	74.7	COc1ccc(Nc2nc(-n3nc(C)cc3C)nc(-n3nc(C)cc3C)n2)cc1 [Compound 5d, 4,6-bis(3,5-dimethyl-1H-pyrazol-1-yl)-N-(4-methoxyphenyl)-1,3,5-triazin-2-amine]			
